Results published in US10758534B2 (Vertex Pharmaceuticals Incorporated, priority 2014, dated 2020).

target: T1, F508del (Homo sapiens, UniProt P13569, DEL508-508); experiment: Protocol 1: membrane potential optical assay (FLIPR III, voltage sensing dye), identification of potentiator compounds; type: cell-based; conditions: Table 3, compounds of Table 1
T1 construct: expressed in transfected cells
Summary of the method: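 Gating potentiation is read as a membrane-potential fluorescence change (FLIPR III, voltage-sensing dye) after one forskolin addition under a Cl− gradient, with gluconate replacing chloride, pH 7.4. Cells are F508del-expressing NIH3T3 mouse fibroblasts held 24 h at 27 °C and exposed to compound before dye loading.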

T1 sequence (P13569 with tags, fused parts or gaps DEL508-508): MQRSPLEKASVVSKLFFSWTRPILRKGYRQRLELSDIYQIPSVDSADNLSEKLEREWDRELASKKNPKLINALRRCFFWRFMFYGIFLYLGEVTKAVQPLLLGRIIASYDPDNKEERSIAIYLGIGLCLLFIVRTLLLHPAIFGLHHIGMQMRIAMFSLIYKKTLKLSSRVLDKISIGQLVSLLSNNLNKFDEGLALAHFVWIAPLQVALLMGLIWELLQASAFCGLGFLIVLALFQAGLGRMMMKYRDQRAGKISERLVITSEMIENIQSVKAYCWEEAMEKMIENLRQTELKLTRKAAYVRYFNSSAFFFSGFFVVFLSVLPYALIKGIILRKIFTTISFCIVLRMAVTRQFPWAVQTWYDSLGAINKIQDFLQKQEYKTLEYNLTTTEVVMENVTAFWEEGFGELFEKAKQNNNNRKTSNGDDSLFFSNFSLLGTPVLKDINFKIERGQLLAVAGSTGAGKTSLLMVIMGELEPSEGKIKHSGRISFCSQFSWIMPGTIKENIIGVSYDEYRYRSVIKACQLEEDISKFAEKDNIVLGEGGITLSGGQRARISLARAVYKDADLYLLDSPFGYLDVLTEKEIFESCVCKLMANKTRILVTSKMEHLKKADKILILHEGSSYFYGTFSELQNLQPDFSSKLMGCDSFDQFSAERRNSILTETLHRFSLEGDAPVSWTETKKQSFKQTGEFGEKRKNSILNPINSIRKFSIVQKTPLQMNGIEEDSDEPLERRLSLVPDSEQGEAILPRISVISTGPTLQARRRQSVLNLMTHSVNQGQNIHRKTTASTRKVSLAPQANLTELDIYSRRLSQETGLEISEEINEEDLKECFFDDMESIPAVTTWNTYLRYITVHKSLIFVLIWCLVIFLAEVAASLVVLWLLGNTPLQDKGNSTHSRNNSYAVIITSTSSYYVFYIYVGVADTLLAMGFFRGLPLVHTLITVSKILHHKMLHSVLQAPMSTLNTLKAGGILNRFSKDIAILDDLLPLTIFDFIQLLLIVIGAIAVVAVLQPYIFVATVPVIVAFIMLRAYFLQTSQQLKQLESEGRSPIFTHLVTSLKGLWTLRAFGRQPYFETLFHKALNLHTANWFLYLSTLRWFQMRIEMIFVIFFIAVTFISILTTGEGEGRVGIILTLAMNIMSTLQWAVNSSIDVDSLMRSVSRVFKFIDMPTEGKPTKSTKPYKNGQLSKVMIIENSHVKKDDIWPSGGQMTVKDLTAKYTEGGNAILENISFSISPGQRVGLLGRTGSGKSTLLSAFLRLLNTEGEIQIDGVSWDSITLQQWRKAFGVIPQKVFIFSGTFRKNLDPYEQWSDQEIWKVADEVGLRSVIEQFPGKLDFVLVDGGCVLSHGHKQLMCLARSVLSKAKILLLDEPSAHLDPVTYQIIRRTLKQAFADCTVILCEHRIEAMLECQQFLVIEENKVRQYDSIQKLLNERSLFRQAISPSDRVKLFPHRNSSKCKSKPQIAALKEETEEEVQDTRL

| SMILES | EC30 |
| --- | --- |
| CC(C)(C)c1ccc(C(=O)NS(=O)(=O)c2ccc(N)cc2)c(NCc2ccccc2)n1 [Compound 1064, N-(4-aminophenyl)sulfonyl-2-(benzylamino)-6-tert-butyl-pyridine-3-carboxamide] | +++ (“+++” means <3 uM) |
| COc1ccccc1COc1cccc(S(=O)(=O)NC(=O)c2cccnc2N2CC(C)CC2(C)C)n1 (centres unmarked) [Compound 1965, N-[[6-[(2-methoxyphenyl)methoxy]-2-pyridyl]sulfonyl]-2-(2,2,4-trimethylpyrrolidin-1-yl)pyridine-3-carboxamide] | +++ (“+++” means <3 uM) |
| Cc1ccc(C(=O)NS(=O)(=O)c2cccc(N)n2)c(N2C[C@@H](C)CC2(C)C)n1 [Compound 1420, N-[(6-amino-2-pyridyl)sulfonyl]-6-methyl-2-[(4S)-2,2,4-trimethylpyrrolidin-1-yl]pyridine-3-carboxamide] | ++ (“++” means between 3 uM and 10 uM) |
| CC1CN(c2ncccc2C(=O)NS(=O)(=O)c2cccc(Oc3cncc(Cl)c3)n2)C(C)(C)C1 (centres unmarked) [Compound 1957, N—[[6-[(5-chloro-3-pyridyl)oxy]-2-pyridyl]sulfonyl]-2-(2,2,4-trimethylpyrrolidin-1-yl)pyridine-3-carboxamide] | ++ (“++” means between 3 uM and 10 uM) |
| CC(C)COc1cc(F)cc(-c2ccc(C(=O)NS(=O)(=O)N3CCC(N)C3)c(N3CC(C)CC3(C)C)n2)c1 (centres unmarked) [Compound 1467, N-(3-aminopyrrolidin-1-yl)sulfonyl-6-(3-fluoro-5-isobutoxy-phenyl)-2-(2,2,4-trimethylpyrrolidin-1-yl)pyridine-3-carboxamide] | +++ (“+++” means <3 uM) |
| Cc1cc(C)c(Oc2nc3c(cc2C(=O)NS(=O)(=O)c2ccc[nH]c2=O)CCCC3(C)C)c(C)c1 [Compound 899, 8,8-dimethyl-N-[(2-oxo-1H-pyridin-3-yl)sulfonyl]-2-(2,4,6-trimethylphenoxy)-6,7-dihydro-5H-quinoline-3-carboxamide] | +++ (“+++” means <3 uM) |
| COc1cccc(S(=O)(=O)NC(=O)C2Cc3ccccc3CCN2Cc2c(C)cc(C)cc2C)n1 (centres unmarked) [Compound 948, N-[(6-methoxy-2-pyridyl)sulfonyl]-3-[(2,4,6-trimethylphenyl)methyl]-1,2,4,5-tetrahydro-3-benzazepine-4-carboxamide] | +++ (“+++” means <3 uM) |
| CCOc1cccc2c1CN(Cc1c(C)cc(C)cc1C)C2(C)C(=O)NS(=O)(=O)c1ccc(C(C)C)c(N)c1 (centres unmarked) [Compound 1562, N-(3-amino-4-isopropyl-phenyl)sulfonyl-4-ethoxy-1-methyl-2-[(2,4,6-trimethylphenyl)methyl]isoindoline-1-carboxamide] | +++ (“+++” means <3 uM) |
| Cc1ccccc1Nc1cccc(S(=O)(=O)NC(=O)c2cccnc2N2CC(C)CC2(C)C)n1 (centres unmarked) [Compound 1898, N—[[6-(2-methylanilino)-2-pyridyl]sulfonyl]-2-(2,2,4-trimethylpyrrolidin-1-yl)pyridine-3-carboxamide] | ++ (“++” means between 3 uM and 10 uM) |
| COc1ncc(-c2ccc(C(=O)NS(=O)(=O)c3nccnc3N)c(Oc3ccc(C)cc3C)n2)cc1C [Compound 893, N-(3-aminopyrazin-2-yl)sulfonyl-2-(2,4-dimethylphenoxy)-6-(6-methoxy-5-methyl-3-pyridyl)pyridine-3-carboxamide] | +++ (“+++” means <3 uM) |
| Cc1cc(C)c(Oc2nc(C3=CCN(C(=O)C(C)C)CC3)ccc2C(=O)NS(=O)(=O)c2cccc(N)n2)c(C)c1 [Compound 1540, N-[(6-amino-2-pyridyl)sulfonyl]-6-[1-(2-methylpropanoyl)-3,6-dihydro-2H-pyridin-4-yl]-2-(2,4,6-trimethylphenoxy)pyridine-3-carboxamide] | + (“+” means greater than 10 uM) |
| CCCOc1ccc(-c2ccc(C(=O)NS(=O)(=O)c3ccc[nH]c3=O)c(Oc3c(C)cc(C)cc3C)n2)cc1Cl [Compound 999, 6-(3-chloro-4-propoxy-phenyl)-N-[(2-oxo-1H-pyridin-3-yl)sulfonyl]-2-(2,4,6-trimethylphenoxy)pyridine-3-carboxamide] | ++ (“++” means between 3 uM and 10 uM) |
| Cc1cc(C)c(Oc2nc(N3CCCC3C)ccc2C(=O)NS(=O)(=O)c2cccc(N)n2)c(C)c1 (centres unmarked) [Compound 1553, N-[(6-amino-2-pyridyl)sulfonyl]-6-(2-methylpyrrolidin-1-yl)-2-(2,4,6-trimethylphenoxy)pyridine-3-carboxamide] | +++ (“+++” means <3 uM) |
| CC(C)(C)c1ccc(C(=O)NS(=O)(=O)c2cccc(N)n2)c(OC2CC3CCC2C3)n1 (centres unmarked) [Compound 1349, N-[(6-amino-2-pyridyl)sulfonyl]-6-tert-butyl-2-norbornan-2-yloxy-pyridine-3-carboxamide] | +++ (“+++” means <3 uM) |
| CC(C)C[C@@H](C)Nc1ccc(-c2ccc(C(=O)NS(=O)(=O)c3cccc(N)n3)c(N3[C@H](C)CC[C@@H]3C)n2)cn1 [Compound 1527, N-[(6-amino-2-pyridyl)sulfonyl]-6-[6-[[(1R)-1,3-dimethylbutyl]amino]-3-pyridyl]-2-[(2S,5R)-2,5-dimethylpyrrolidin-1-yl]pyridine-3-carboxamide] | +++ (“+++” means <3 uM) |
| CC(C)COc1cc(F)cc(-c2ccc(C(=O)NS(=O)(=O)c3cccc(N)n3)c(OCCC3CCC3)n2)c1 [Compound 1418, N-[(6-amino-2-pyridyl)sulfonyl]-2-(2-cyclobutylethoxy)-6-(3-fluoro-5-isobutoxy-phenyl)pyridine-3-carboxamide] | +++ (“+++” means <3 uM) |
| C[C@@H]1CN(c2nc(C#N)ccc2C(=O)NS(=O)(=O)c2cccc(N)n2)C(C)(C)C1 [Compound 1564, N-[(6-amino-2-pyridyl)sulfonyl]-6-cyano-2-[(4S)-2,2,4-trimethylpyrrolidin-1-yl]pyridine-3-carboxamide] | ++ (“++” means between 3 uM and 10 uM) |
| CC1CN(c2ncccc2C(=O)NS(=O)(=O)c2cccc(N3CCCC4CCCCC43)n2)C(C)(C)C1 (centres unmarked) [Compound 1776, N—[[6-(3,4,4a,5,6,7,8,8a-octahydro-2H-quinolin-1-yl)-2-pyridyl]sulfonyl]-2-(2,2,4-trimethylpyrrolidin-1-yl)pyridine-3-carboxamide] | +++ (“+++” means <3 uM) |
| CCOc1ncc(-c2ccc(C(=O)NS(=O)(=O)c3cccc(N)n3)c(N3C[C@@H](C)CC3(C)C)n2)cc1C [Compound 1727, N-[(6-amino-2-pyridyl)sulfonyl]-6-(6-ethoxy-5-methyl-3-pyridyl)-2-[(4S)-2,2,4-trimethylpyrrolidin-1-yl]pyridine-3-carboxamide] | +++ (“+++” means <3 uM) |
| CC(C)COc1cc(F)cc(-c2ccc(C(=O)NS(=O)(=O)c3cccc(N)n3)c(C3=CC(C)(C)CC3(C)C)n2)c1 [Compound 1502, N-[(6-amino-2-pyridyl)sulfonyl]-6-(3-fluoro-5-isobutoxy-phenyl)-2-(3,3,5,5-tetramethylcyclopenten-1-yl)pyridine-3-carboxamide] | +++ (“+++” means <3 uM) |
| Cc1cc(C)c(Oc2nc(C(C)(C)C)ccc2C(=O)NS(=O)(=O)c2csc(N)n2)c(C)c1 [Compound 1294, N-(2-aminothiazol-4-yl)sulfonyl-6-tert-butyl-2-(2,4,6-trimethylphenoxy)pyridine-3-carboxamide] | +++ (“+++” means <3 uM) |
| C[C@@H]1CN(c2nc(C3CCC(C(F)(F)F)CC3)ccc2C(=O)NS(=O)(=O)c2cccc(N)n2)C(C)(C)C1 (stereo partly drawn) [Compound 1672, N-[(6-amino-2-pyridyl)sulfonyl]-6-[4-(trifluoromethyl)cyclohexyl]-2-[(4S)-2,2,4-trimethylpyrrolidin-1-yl]pyridine-3-carboxamide] | +++ (“+++” means <3 uM) |
| CC(C)Oc1ccc(-c2cnc(C(=O)NS(=O)(=O)c3cccc(N)n3)c(N3[C@H](C)CC[C@@H]3C)n2)cn1 [Compound 1651, N-[(6-amino-2-pyridyl)sulfonyl]-3-[(2S,5R)-2,5-dimethylpyrrolidin-1-yl]-5-(6-isopropoxy-3-pyridyl)pyrazine-2-carboxamide] | ++ (“++” means between 3 uM and 10 uM) |
| CC(C)COc1cc(F)cc(-c2ccc(C(=O)NS(=O)(=O)c3cccc(N)n3)c(OCC3CC3(C)C)n2)c1 (centres unmarked) [Compound 894, N-[(6-amino-2-pyridyl)sulfonyl]-2-[(2,2-dimethylcyclopropyl)methoxy]-6-(3-fluoro-5-isobutoxy-phenyl)pyridine-3-carboxamide] | +++ (“+++” means <3 uM) |
| CC(C)Oc1ccc(-c2ccc(C(=O)NS(=O)(=O)c3cccc(N)n3)c(N3Cc4ccccc4C3)n2)cn1 [Compound 1072, N-[(6-amino-2-pyridyl)sulfonyl]-2-isoindolin-2-yl-6-(6-isopropoxy-3-pyridyl)pyridine-3-carboxamide] | ++ (“++” means between 3 uM and 10 uM) |
| Cc1cc(OC(C)C)cc(-c2ccc(C(=O)NS(=O)(=O)c3cccc(N)n3)c(N3C[C@@H](C)CC3(C)C)n2)c1 [Compound 1671, N-[(6-amino-2-pyridyl)sulfonyl]-6-(3-isopropoxy-5-methyl-phenyl)-2-[(4S)-2,2,4-trimethylpyrrolidin-1-yl]pyridine-3-carboxamide] | +++ (“+++” means <3 uM) |
| CO[C@@H]1CCN(S(=O)(=O)NC(=O)c2ccc(-c3cc(F)cc(OCC(C)C)c3)nc2N2C[C@@H](C)CC2(C)C)C1 [Compound 1893, 6-(3-fluoro-5-isobutoxy-phenyl)-N-[(3R)-3-methoxypyrrolidin-1-yl]sulfonyl-2-[(4S)-2,2,4-trimethylpyrrolidin-1-yl]pyridine-3-carboxamide] | +++ (“+++” means <3 uM) |
| CC(C)COc1cc(F)cc(-c2ccc(C(=O)NS(=O)(=O)c3cccc(N)n3)c(N3CCCC34CCC4)n2)c1 [Compound 845, N-[(6-amino-2-pyridyl)sulfonyl]-2-(8-azaspiro[3.4]octan-8-yl)-6-(3-fluoro-5-isobutoxy-phenyl)pyridine-3-carboxamide] | +++ (“+++” means <3 uM) |
| CC(C)COc1cc(F)cc(-c2ccc(C(=O)NS(=O)(=O)c3cccc(N)n3)c(N3CCC3(C)C)n2)c1 [Compound 1928, N-[(6-amino-2-pyridyl)sulfonyl]-2-(2,2-dimethylazetidin-1-yl)-6-(3-fluoro-5-isobutoxy-phenyl)pyridine-3-carboxamide] | ++ (“++” means between 3 uM and 10 uM) |
